Among the data in paper PMC6193938, “Characterization of a novel AICARFT inhibitor which potently elevates ZMP and has anti-tumor activity in murine models” (Scientific Reports, 2018) are inhibition and EC50 values, retold here.

As a reminder, the inhibition is the drop in the measured response relative to a control, in per cent. By EC50 is commonly meant the concentration giving half of the maximal effect. Higher therefore signals lower potency in that assay.

One experiment concerns the target T1, JAK3 (Homo sapiens, UniProt P52333).
T1 construct: purchased CEREP Panlabs (Eurofins)
T1 sequence (P52333 1-1124): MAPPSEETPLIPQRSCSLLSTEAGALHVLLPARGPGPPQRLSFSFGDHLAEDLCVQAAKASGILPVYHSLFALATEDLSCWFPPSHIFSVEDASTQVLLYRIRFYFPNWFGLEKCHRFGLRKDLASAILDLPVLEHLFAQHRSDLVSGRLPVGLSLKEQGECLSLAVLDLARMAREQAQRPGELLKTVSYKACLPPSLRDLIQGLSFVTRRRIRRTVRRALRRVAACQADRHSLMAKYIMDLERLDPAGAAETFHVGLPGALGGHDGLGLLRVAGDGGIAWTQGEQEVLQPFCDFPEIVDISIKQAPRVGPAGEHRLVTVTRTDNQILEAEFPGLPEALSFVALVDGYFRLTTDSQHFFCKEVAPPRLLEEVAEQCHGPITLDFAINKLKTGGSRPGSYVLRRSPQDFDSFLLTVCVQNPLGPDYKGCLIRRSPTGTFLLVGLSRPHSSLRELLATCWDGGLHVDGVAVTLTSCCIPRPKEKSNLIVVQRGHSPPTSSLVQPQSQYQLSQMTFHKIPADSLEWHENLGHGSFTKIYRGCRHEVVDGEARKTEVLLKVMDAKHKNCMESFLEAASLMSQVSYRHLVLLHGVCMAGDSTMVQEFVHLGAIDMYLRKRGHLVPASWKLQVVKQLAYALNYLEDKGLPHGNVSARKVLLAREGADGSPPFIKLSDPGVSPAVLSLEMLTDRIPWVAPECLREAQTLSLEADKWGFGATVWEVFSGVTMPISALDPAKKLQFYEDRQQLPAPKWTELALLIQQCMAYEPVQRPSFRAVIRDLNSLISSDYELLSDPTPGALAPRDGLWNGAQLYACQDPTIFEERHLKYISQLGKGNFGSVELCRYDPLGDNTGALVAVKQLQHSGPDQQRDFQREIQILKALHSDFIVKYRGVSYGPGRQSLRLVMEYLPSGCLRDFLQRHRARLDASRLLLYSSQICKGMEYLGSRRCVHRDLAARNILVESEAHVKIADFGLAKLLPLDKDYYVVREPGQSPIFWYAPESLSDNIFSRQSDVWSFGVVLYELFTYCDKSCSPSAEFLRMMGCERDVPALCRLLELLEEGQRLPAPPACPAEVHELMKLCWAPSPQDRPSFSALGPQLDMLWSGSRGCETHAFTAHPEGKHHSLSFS
Description: CEREP protein kinase assay. Format: biochemical.

In a further experiment the test system is cell lines of Table 1. Description: MS detection of ZMP in cultured cells, average over cell lines. Format: cell-based. The settings on record: Homo sapiens. How it is done:
Cells lines were acquired from cell banks, see supplemental material, grown using the cell banks recommended culture conditions (Supplemental Table 3). In some experiments noted “low folate” the cells were washed and grown in folate free RPMI-1640 media (Gibco #27016-021) supplemented with 5 ml 1 M Hepes, 5 ml 100 mM Na pyruvate, 2.5 mg/ml glucose and 10% defined FBS (Hyclone #SH30070) per 500 mL media for 5–7 days to deplete intracellular folate levels prior to the start of the experiment. Where noted, cells were maintained in complete “high folate” RPMI-1640 media (ATCC #30-2001) with 10% defined FBS to contrast with the low folate conditions.
ZMP was detected in cultured cells via mass spec analysis. Cells were plated in 96-well plates at 25,000 cells per well in 100 µL with either high or low folate RPMI media and incubated overnight at 37 °C with 5% CO2. Cells were treated with inhibitor compounds for 16 hours, 0.5% DMSO final concentration. […]
ZMP, AICAr and dUMP were detected using positive ion TurboIonSpray® multiple reaction monitoring mode and the data were processed with AB Sciex MultiQuant™. Back-calculated ZMP concentrations were fit to a four-parameter logistic equation using ACTIVITYBASE 4.0 to determine EC50 values relative to the maximum observed metabolite levels.

A further experiment has as its target T2, MET (Homo sapiens, UniProt P08581).
T2 construct: purchased CEREP Panlabs (Eurofins)
As to the kind of experiment: CEREP protein kinase assay. Format: biochemical.

Another experiment concerns the target T3, AURA (Homo sapiens, UniProt O14965).
T3 construct: purchased CEREP Panlabs (Eurofins)
T3 sequence (O14965 1-403): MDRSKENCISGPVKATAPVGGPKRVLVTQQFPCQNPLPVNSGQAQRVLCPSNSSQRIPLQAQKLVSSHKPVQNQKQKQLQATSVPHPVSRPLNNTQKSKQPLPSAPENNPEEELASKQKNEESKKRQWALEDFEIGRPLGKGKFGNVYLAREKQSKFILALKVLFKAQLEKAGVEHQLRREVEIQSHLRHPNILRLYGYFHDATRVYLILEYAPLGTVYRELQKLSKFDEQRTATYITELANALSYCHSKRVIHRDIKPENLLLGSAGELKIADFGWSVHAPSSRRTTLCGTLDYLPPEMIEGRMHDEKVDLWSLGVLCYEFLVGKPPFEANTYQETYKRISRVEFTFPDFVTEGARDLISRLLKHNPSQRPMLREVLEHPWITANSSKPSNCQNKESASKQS
Description: CEREP protein kinase assay. It counts as biochemical.

In the next experiment the target is T4, PYK2 (Homo sapiens, UniProt Q14289).
T4 construct: purchased CEREP Panlabs (Eurofins)
T4 sequence (Q14289 whole entry): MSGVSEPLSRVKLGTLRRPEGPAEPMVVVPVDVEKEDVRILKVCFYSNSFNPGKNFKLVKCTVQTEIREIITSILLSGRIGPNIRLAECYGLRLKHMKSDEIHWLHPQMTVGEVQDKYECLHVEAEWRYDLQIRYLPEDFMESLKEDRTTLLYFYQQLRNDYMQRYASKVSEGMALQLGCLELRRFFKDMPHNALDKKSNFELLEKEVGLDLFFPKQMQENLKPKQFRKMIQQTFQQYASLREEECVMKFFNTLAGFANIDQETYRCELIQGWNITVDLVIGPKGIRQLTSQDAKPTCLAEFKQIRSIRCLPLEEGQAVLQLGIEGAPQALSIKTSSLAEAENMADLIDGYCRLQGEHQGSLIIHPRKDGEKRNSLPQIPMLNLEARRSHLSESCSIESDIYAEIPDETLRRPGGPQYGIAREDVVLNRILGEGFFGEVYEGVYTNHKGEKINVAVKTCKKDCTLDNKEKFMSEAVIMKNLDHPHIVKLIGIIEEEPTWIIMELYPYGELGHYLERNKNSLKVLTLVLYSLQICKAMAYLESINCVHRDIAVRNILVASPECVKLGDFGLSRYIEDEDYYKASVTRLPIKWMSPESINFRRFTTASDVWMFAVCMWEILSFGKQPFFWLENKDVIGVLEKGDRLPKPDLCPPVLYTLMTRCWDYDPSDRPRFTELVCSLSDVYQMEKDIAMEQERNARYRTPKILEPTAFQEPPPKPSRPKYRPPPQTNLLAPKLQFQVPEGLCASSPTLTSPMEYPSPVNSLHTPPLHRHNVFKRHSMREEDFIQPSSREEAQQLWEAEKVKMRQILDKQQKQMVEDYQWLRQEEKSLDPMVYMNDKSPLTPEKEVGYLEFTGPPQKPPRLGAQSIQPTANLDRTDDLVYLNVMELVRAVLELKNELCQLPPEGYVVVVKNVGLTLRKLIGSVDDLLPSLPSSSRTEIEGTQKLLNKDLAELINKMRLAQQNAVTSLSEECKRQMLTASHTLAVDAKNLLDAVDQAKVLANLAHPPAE
Description: CEREP protein kinase assay. Format: biochemical.

A further experiment addresses T5, EPHA5 (Homo sapiens, UniProt P54756).
T5 construct: purchased CEREP Panlabs (Eurofins)
As to the kind of experiment: CEREP protein kinase assay. It counts as biochemical.

For the next experiment, the target named is T6, CDK7 (Homo sapiens, UniProt P50613).
T6 construct: purchased CEREP Panlabs (Eurofins)
T6 sequence (P50613 whole entry): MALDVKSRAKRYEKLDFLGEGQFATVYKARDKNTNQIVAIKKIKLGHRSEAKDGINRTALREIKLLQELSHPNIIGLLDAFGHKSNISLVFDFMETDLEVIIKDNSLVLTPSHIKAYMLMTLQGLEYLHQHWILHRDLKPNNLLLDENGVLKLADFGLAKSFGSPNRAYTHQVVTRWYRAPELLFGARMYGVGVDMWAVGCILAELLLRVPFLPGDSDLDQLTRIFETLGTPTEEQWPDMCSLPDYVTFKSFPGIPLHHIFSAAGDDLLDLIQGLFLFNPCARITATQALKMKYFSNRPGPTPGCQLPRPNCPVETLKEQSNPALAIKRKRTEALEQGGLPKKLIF
T6 sequence (P51946 whole entry partner): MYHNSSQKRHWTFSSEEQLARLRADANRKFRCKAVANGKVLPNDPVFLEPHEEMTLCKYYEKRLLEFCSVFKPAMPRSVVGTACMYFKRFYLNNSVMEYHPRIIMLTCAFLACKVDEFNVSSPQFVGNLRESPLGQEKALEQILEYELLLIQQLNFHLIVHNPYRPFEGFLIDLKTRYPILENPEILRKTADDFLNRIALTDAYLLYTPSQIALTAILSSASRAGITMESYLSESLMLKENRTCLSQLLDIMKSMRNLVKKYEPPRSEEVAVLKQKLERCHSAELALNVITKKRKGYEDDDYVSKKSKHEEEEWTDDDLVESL
T6 sequence (P51948 whole entry partner): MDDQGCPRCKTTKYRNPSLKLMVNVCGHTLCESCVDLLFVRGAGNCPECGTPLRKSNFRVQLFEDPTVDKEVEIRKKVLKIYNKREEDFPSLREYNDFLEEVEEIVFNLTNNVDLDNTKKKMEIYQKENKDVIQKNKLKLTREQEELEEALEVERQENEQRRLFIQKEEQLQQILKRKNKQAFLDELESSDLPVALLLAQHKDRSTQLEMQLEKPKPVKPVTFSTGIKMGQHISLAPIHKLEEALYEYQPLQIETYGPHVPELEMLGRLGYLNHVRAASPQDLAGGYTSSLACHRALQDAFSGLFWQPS
Description: CEREP protein kinase assay. It counts as biochemical.

T2 sequence (P08581 25-1390): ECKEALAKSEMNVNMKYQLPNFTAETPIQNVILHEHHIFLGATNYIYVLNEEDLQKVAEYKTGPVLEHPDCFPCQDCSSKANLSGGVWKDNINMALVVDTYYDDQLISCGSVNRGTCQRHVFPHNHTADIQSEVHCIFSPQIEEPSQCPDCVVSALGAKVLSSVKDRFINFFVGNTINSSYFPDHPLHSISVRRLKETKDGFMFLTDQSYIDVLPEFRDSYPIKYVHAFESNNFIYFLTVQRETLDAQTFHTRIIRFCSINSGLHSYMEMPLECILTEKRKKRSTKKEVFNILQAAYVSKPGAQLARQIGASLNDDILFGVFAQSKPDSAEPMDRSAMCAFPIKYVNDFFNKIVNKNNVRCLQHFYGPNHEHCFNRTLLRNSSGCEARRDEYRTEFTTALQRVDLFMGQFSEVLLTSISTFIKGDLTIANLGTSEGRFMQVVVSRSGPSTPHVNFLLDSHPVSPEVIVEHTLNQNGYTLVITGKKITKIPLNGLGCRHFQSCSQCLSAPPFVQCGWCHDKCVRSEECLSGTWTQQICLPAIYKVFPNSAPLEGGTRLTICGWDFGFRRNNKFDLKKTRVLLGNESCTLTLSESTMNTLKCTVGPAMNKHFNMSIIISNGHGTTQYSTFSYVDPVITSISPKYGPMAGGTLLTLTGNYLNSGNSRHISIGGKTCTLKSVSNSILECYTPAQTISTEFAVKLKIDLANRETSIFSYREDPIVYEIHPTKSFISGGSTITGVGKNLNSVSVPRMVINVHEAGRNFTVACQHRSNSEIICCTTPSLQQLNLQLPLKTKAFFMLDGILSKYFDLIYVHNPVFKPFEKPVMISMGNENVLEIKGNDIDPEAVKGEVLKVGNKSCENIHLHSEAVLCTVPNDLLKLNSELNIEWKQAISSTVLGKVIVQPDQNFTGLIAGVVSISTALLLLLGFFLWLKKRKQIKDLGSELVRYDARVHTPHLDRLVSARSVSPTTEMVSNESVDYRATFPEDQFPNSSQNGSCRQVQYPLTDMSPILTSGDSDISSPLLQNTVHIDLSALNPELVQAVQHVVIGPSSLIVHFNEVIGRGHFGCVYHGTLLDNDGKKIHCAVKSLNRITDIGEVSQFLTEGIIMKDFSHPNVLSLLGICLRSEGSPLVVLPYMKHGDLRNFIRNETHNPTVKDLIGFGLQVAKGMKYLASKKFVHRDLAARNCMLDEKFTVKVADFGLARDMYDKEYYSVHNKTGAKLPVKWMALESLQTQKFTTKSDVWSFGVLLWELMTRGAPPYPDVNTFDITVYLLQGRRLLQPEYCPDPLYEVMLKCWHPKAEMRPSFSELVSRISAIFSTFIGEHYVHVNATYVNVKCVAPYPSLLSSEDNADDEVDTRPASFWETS
T5 sequence (P54756 25-1037): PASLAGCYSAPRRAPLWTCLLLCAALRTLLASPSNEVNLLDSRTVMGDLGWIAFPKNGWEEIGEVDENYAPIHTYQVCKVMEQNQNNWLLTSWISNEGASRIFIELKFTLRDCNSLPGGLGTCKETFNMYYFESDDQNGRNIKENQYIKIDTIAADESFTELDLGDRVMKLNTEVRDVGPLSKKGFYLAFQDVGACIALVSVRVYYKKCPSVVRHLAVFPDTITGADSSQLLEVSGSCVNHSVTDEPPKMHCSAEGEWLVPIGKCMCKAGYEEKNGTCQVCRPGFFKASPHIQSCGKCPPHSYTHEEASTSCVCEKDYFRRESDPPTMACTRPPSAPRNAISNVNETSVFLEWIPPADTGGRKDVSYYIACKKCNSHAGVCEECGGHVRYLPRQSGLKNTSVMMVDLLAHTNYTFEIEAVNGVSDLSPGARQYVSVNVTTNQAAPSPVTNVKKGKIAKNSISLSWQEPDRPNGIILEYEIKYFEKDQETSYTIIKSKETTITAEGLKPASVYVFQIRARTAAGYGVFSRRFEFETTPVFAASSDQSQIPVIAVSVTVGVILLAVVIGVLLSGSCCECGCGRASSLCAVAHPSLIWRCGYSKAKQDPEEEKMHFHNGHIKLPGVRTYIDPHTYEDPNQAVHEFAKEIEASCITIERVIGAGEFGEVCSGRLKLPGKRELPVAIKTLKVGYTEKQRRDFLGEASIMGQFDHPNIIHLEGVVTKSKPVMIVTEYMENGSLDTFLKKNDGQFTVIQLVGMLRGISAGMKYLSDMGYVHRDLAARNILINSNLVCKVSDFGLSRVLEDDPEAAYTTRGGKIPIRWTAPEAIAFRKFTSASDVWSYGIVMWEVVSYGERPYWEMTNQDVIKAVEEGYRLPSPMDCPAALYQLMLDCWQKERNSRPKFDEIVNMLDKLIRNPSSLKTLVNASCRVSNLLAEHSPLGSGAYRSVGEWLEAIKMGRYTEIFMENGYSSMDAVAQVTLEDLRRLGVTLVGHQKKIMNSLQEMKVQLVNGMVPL

As for `O=c1[nH]ccc2cc(F)c(NS(=O)(=O)c3ccc(N4CC[C@@H](O)C4)s3)cc12` [LSN3213128, N-(6-Fluoro-1-oxo-1,2-dihydroisoquinolin-7-yl)-5-[(3R)-3-hydroxypyrrolidin-1-yl]thiophene-2-sulfonamide], the inhibition at 0.2 µM on JAK3 (@ 0.2 uM) was -5.81%; on MET (@ 0.2 uM), -5.89%; against AURA (@ 0.2 uM), -4.11%; at PYK2 (@ 0.2 uM) it was -25.1%; on EPHA5 (@ 0.2 uM) it was 3.96%; against CDK7 (@ 0.2 uM) it was -17%. In addition, the inhibition at 2 µM is 2.78% against JAK3 (@ 2 uM); 8.99% against MET (@ 2 uM); 1.86% against AURA (@ 2 uM); -1.17% against PYK2 (@ 2 uM); 9.58% against EPHA5 (@ 2 uM); 2.91% on CDK7 (@ 2 uM). The inhibition at 20 µM against JAK3 (@ 20 uM) is 28.6%; against MET (@ 20 uM) it was 17.8%; at AURA (@ 20 uM) it was 4.28%; against PYK2 (@ 20 uM), 16.5%; against EPHA5 (@ 20 uM), 19.4%; on CDK7 (@ 20 uM), 15%. Also, the EC50 with cell lines of Table 1 (low folate media, 12 cell lines) stood at 4.9 ± 2.6 nM; in the experiment on cell lines of Table 1 (normal RPMI, 8 cell lines) it was 1210 nM.
